Experimental data taken from ChEMBL document CHEMBL1201862, “PubChem BioAssay data set” (2004).
Calls of active or inactive are those of the source.

How the values were obtained:
[1] = microbe, parasite or virus in culture; assay type: functional; conditions: Mycobacterium tuberculosis
H9c2 = experiment: cells; assay type: functional, cell-based; conditions: Rattus norvegicus, H9c2, Myocardium;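 also: confirmatory concentration-response retest of ultra-high-throughput screening hits for modulation of myocardial damage; cell death induced by hydrogen peroxide oxidative stress; compound pretreatment for 60 min then peroxide exposure for 2 h; potency is for protecting the cells against peroxide damage rather than for killing them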
[2] = molecular target: T1, Corticotropin-releasing factor receptor 2/Corticotropin-releasing factor-binding protein (Homo sapiens, UniProt P24387+Q13324); experiment: activators of CRF receptor 2 with binding protein – uHTS hits, confirmation (AID 602473); assay type: functional; conditions: read-out: EC50_Mean
T1 sequence (Q13324 whole entry): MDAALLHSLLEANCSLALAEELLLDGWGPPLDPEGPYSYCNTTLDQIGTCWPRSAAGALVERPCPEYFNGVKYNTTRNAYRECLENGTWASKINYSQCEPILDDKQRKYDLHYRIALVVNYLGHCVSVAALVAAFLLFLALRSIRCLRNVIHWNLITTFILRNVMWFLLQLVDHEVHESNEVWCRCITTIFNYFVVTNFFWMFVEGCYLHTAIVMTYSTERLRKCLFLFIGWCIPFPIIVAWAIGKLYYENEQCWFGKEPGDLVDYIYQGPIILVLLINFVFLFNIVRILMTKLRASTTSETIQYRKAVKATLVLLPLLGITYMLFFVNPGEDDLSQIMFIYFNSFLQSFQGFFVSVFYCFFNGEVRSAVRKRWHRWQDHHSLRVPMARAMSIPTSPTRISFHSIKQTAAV
T1 sequence (P24387 whole entry): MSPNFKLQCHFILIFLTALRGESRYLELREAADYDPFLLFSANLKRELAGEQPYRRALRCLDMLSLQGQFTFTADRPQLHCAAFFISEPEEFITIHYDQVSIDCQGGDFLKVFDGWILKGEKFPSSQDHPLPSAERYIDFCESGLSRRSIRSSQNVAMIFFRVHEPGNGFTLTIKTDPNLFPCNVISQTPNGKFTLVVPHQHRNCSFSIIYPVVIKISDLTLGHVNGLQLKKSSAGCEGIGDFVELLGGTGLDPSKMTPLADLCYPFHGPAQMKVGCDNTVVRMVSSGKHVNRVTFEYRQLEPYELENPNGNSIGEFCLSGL

[3] = molecular target: T1, Corticotropin-releasing factor receptor 2/Corticotropin-releasing factor-binding protein; experiment: Dose Response confirmation of uHTS hits for small molecule antagonists of the CRF-binding protein and CRF-R2 receptor complex.; assay type: functional; conditions: read-out: IC50_Mean
[4] = molecular target: FAD-linked sulfhydryl oxidase ALR (Homo sapiens, UniProt P55789); experiment: inhibitors of human ALR sulfhydryl oxidase, dose response, biochemical, H2O2 detection, luminescence, cherry-pick (AID 493248)
Cytochrome P450 3A4 = Cytochrome P450 3A4 (Homo sapiens, UniProt P08684);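 also: CYP3A4 tested as one member of a cytochrome P450 panel screen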
[5] = molecular target: Glucose-6-phosphate 1-dehydrogenase (Homo sapiens, UniProt P11413); experiment: human G6PD enzyme inhibitors, dose response, selectivity assay for P. falciparum G6PD inhibitor project, biochemical, fluorescence (AID 504792); assay type: functional
[6] = molecular target: DNA dC->dU-editing enzyme APOBEC-3G (Homo sapiens, UniProt Q9HC16); experiment: Dose Response confirmation of small molecule APOBEC3G DNA Deaminase Inhibitors via a fluorescence-based single-stranded DNA deaminase assay. [Related pubchem assays (depositor defined):AID493012, AID493028]; assay type: functional
[7] = cytotoxicity toward NIH3T3 fibroblasts, dose response, counter-screen, cell-based, ATP luminescence, mouse fibroblasts (AID 2010); assay type: functional;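 also: cells exposed to compound for about 90 hours before reading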
[8] = inhibitors of intracellular T. cruzi replication, confirmation, NIH3T3 host cells, beta-gal luminescence (AID 2044); assay type: functional, cell-based;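 also: intracellular parasites grown in NIH/3T3 mouse fibroblasts as host cells; luminescent beta-galactosidase reporter signal from transgenic T. cruzi replicating inside host cells; inhibitors lower the luminescence signal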
[9] = molecular target: Peroxisome proliferator-activated receptor gamma/Nuclear receptor coactivator 1 (Homo sapiens, UniProt P37231); experiment: TR-FRET dose response biochemical High Throughput Screening assay for agonists of the steroid receptor coactivator 1 (SRC-1) recruitment by the peroxisome proliferator-activated receptor gamma (PPAR gamma): non-selective agonists. [Related pubchem assays (depositor defined):AID1300, AID1808, AID504735, AID631]; assay type: protein assay
[10] = molecular target: Peroxisome proliferator-activated receptor gamma/Nuclear receptor coactivator 2 (Homo sapiens, UniProt P37231); experiment: TR-FRET dose response biochemical High Throughput Screening assay for agonists of the steroid receptor coactivator 2 (SRC-2) recruitment by the peroxisome proliferator-activated receptor gamma (PPAR gamma): non-selective agonists. [Related pubchem assays: 1297, 1032 ]; assay type: functional
[11] = molecular target: Peroxisome proliferator-activated receptor gamma/Nuclear receptor coactivator 3 (Homo sapiens, UniProt P37231); experiment: TR-FRET dose response biochemical High Throughput Screening assay for agonists of the steroid receptor coactivator 3 (SRC-3) recruitment by the peroxisome proliferator-activated receptor gamma (PPAR gamma): non-selective agonists. [Related pubchem assays: 1301 (Confirmation screen.), 1048 (Primary screen.)]; assay type: functional
[12] = Luminescence Cell-Based Dose Retest to Confirm Inhibitors of Cancer Stem Cells. [Related pubchem assays (depositor defined):AID2717, AID2721]; assay type: functional; conditions: Homo sapiens
[13] = inhibitors of firefly luciferase expression or activity, dose response, H4 neuroglioma cells, luminescence (AID 1990); assay type: functional, cell-based
[14] = inhibitors of SNCA 5'UTR-driven reporter translation, confirmation, H4 neuroglioma cells, luminescence (AID 1988); assay type: functional, cell-based
[15] = Luminescence Cell-Based Dose Response HTS to Identify Inhibitors of 5'UTR Stem-Loop Driven Prion Protein mRNA Translation in H4 Neuroglioblastoma Cells. [Related pubchem assays: 1827 (Project Summary), 1813 (Primary HTS)]; assay type: functional
[16] = HEp-2 cell cytotoxicity, dose response, cytotoxicity control for RSV inhibitor project, HTS (AID 2410); assay type: functional; conditions: human respiratory syncytial virus
[17] = intracellular Trypanosoma cruzi inhibitors in host cells – cell-based, plate reader, cherry-pick samples, set 3, dose response (AID 651818); assay type: functional;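 also: compounds incubated with infected cells for about four days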
[18] = molecular target: Induced myeloid leukemia cell differentiation protein Mcl-1 (Homo sapiens, UniProt Q07820); assay type: functional
BJ [19] = experiment: cytotoxicity toward BJ-TERT fibroblasts, dose response, cell-based, RAS-independent, luminescence (AID 1933); assay type: functional; conditions: Homo sapiens
BJ [20] = experiment: cytotoxicity toward BJ-TERT-LT-ST fibroblasts, dose response, cell-based, RAS-independent, luminescence (AID 1935); assay type: functional; conditions: Homo sapiens;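 also: BJ fibroblasts immortalized with TERT plus LT and ST oncogenes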
BJ [21] = experiment: cells; assay type: functional, cell-based; conditions: Homo sapiens
[22] = cytotoxicity toward DRD oncogenic fibroblasts, dose response, cell-based, non-viral oncogenic, luminescence (AID 1934); assay type: functional; conditions: Homo sapiens
[23] = molecular target: T2, Rac GTPase-activating protein 1 (Homo sapiens, UniProt Q9H0H5); experiment: MgcRacGAP GTPase-activating activity inhibitors, confirmation, biochemical, ADP Hunter fluorescence, primary and confirmatory (AID 624330); assay type: functional
T2 sequence (Q9H0H5 whole entry): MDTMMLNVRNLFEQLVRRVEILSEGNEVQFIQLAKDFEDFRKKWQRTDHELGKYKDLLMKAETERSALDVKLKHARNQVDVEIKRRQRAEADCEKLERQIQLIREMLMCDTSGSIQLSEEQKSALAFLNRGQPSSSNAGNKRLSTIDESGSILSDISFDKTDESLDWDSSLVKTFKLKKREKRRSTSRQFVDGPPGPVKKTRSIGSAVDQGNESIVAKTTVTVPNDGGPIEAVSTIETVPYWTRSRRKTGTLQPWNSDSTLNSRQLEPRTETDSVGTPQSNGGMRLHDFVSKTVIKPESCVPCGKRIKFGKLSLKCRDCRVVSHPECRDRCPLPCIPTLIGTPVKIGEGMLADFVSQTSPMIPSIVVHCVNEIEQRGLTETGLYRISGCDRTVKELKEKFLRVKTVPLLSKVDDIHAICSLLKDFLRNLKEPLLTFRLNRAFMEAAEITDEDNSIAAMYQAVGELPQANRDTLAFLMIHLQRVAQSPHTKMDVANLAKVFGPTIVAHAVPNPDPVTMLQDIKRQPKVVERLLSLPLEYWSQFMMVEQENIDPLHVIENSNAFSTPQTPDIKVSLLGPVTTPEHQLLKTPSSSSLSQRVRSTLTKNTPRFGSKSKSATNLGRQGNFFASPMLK

Sequence of Glucose-6-phosphate 1-dehydrogenase (P11413 whole entry): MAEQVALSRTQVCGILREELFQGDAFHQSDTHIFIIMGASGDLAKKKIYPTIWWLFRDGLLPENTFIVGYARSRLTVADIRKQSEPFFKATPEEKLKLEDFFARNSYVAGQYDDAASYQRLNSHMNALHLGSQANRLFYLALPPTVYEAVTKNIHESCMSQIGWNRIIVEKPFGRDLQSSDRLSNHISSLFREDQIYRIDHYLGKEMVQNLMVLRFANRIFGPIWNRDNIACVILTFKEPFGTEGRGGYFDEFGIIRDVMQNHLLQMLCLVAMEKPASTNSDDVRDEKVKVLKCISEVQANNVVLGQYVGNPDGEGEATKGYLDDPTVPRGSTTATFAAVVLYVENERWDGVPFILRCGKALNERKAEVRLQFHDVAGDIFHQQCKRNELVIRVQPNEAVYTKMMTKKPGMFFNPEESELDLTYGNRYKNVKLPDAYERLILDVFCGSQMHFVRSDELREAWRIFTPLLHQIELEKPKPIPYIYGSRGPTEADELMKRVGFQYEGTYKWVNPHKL
Sequence of Peroxisome proliferator-activated receptor gamma/Nuclear receptor coactivator 2 (P37231 whole entry): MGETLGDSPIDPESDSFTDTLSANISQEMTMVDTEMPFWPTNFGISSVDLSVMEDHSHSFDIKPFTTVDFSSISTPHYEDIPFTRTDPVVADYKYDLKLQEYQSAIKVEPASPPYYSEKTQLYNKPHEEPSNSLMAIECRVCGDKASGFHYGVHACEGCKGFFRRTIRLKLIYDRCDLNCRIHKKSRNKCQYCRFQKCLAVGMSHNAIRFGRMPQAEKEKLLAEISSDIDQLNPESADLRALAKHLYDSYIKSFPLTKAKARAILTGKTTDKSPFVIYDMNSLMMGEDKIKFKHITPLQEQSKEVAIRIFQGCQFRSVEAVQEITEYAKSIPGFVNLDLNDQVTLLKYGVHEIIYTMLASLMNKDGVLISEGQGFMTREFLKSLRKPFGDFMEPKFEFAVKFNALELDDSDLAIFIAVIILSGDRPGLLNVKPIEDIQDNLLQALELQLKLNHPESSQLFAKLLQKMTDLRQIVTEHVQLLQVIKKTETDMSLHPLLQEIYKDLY
Sequence of Peroxisome proliferator-activated receptor gamma/Nuclear receptor coactivator 2 (Q15596 whole entry, further chain): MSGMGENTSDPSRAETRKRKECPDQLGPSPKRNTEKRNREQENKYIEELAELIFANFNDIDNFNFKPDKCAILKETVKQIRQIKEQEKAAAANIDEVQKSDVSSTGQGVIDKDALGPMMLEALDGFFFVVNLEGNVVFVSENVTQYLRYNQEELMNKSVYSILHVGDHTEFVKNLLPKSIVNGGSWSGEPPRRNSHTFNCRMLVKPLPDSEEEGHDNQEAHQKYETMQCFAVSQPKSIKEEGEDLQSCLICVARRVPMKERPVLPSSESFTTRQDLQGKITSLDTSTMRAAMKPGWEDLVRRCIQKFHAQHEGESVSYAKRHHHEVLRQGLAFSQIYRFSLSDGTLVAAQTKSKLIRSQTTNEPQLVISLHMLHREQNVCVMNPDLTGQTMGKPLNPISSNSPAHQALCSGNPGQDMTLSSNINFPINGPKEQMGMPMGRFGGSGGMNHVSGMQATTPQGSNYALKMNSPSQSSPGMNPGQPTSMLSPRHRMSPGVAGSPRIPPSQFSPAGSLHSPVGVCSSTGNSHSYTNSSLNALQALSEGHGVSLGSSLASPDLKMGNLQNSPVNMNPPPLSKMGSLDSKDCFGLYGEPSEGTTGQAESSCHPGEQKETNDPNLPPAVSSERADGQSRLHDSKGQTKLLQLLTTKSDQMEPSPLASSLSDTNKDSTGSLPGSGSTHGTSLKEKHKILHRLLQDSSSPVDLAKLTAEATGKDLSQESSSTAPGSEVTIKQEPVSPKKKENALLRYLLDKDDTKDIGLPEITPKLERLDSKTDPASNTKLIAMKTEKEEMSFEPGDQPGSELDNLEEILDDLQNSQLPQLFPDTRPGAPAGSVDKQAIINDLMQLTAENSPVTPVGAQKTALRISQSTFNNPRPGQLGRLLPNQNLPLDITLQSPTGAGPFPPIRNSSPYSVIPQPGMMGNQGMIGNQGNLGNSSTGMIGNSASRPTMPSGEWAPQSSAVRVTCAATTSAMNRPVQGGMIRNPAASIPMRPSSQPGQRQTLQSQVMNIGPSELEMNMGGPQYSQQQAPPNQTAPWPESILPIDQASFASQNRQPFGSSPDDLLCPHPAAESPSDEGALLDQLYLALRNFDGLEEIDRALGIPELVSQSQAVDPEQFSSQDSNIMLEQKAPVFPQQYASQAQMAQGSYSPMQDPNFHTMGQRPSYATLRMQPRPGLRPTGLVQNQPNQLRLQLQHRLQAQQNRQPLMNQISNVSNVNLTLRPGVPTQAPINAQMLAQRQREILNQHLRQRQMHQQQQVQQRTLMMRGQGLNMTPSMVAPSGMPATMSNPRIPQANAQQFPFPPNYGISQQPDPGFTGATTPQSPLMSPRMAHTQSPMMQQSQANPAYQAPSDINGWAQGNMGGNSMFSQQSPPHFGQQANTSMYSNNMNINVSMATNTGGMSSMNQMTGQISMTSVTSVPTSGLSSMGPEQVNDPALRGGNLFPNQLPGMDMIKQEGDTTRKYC
Sequence of Peroxisome proliferator-activated receptor gamma/Nuclear receptor coactivator 1 (P37231 whole entry): as the sequence (P37231 whole entry) above
Sequence of Peroxisome proliferator-activated receptor gamma/Nuclear receptor coactivator 1 (Q15788 whole entry, further chain): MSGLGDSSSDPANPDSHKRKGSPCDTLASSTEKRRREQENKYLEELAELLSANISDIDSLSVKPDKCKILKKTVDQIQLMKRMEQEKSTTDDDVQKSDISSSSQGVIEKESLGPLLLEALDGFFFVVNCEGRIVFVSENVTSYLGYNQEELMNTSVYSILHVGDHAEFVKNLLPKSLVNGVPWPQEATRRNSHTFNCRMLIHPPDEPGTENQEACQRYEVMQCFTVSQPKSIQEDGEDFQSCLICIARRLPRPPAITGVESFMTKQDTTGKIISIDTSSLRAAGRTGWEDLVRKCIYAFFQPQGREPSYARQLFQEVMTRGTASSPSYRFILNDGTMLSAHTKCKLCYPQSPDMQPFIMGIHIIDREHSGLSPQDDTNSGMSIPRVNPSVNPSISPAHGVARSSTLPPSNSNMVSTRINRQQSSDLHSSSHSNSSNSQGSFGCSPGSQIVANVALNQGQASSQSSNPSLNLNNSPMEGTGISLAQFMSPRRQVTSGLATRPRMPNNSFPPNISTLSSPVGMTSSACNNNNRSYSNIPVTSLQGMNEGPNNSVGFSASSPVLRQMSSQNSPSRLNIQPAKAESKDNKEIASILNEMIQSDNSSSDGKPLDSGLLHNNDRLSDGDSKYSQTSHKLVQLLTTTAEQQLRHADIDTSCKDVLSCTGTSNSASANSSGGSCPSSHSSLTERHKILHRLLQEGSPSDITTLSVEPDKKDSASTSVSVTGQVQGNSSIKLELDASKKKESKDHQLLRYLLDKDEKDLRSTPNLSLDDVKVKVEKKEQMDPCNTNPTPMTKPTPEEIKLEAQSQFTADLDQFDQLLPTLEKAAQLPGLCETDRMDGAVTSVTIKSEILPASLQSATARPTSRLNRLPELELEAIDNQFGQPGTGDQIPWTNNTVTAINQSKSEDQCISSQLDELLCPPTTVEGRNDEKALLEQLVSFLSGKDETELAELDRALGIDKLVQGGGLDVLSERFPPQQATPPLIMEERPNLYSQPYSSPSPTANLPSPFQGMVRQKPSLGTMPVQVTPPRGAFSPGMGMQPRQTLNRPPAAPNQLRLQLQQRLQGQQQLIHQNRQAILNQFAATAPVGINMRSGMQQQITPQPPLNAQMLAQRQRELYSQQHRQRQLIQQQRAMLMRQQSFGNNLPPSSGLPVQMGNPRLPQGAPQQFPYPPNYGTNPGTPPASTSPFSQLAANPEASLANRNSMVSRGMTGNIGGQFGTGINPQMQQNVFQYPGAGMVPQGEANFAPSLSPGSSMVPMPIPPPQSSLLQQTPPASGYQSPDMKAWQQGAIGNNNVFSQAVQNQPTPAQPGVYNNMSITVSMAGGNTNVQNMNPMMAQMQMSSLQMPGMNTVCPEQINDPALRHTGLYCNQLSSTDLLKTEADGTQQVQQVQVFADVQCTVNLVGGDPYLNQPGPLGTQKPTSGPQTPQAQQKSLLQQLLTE
Sequence of DNA dC->dU-editing enzyme APOBEC-3G (Q9HC16 whole entry): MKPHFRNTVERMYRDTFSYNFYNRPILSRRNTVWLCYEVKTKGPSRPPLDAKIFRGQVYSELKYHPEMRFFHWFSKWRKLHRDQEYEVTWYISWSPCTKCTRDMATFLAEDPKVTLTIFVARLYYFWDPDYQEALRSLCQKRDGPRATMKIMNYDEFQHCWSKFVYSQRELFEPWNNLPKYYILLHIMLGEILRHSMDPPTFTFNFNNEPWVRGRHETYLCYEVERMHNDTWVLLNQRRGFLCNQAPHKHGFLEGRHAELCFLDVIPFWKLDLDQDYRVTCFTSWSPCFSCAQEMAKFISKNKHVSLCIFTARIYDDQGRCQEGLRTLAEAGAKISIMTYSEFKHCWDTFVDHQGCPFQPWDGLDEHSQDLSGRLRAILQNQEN
Sequence of FAD-linked sulfhydryl oxidase ALR (P55789 whole entry): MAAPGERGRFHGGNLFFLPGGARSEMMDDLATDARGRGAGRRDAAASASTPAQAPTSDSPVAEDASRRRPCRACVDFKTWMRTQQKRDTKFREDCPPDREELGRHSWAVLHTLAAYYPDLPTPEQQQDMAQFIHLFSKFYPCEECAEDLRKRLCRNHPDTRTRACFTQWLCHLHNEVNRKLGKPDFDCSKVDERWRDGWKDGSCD

CCNc1nc(Nc2ccc(C)c(Cl)c2)c2cnn(C)c2n1
CC50 [1]: > 40 µM (active)

COc1cc(NC(=O)c2cc([N+](=O)[O-])ccc2NC(=O)CN2CCN(c3ccccn3)CC2)cc(OC)c1
IC50 (H9c2): 10.8 µM (active)

COc1ccc(NC(=S)N2CCC(N(C)CCN3CCOCC3)CC2)cc1Cl
EC50 [2]: > 53 µM (inactive) | IC50 [3]: > 47.1 µM (inactive)

Cc1ccc(S(=O)(=O)NNc2ccccc2)cc1
AC50 [4]: 0.623 µM (active) | AC50 (Cytochrome P450 3A4): 28.2 µM (inconclusive) | IC50 [5]: > 80 µM (inactive)

CCOC(=O)c1c(NC(=O)COC(=O)c2ccc(O)cc2)sc(C(=O)N(C)C)c1C
IC50 (H9c2): > 79 µM (inactive)

CCCNC(=O)Cn1sc2nc(C)cc(C)c2c1=O
IC50 [6]: 5.41 µM (active) | EC50 [7]: 9.56 µM (active) | IC50 [5]: 45.5 µM (inactive) | EC50 [8]: 3.08 µM (active)

Cc1noc(NS(=O)(=O)c2ccc(N/C=C\C(=O)c3cccc4ccccc34)cc2)c1C
EC50 [2]: > 53 µM (inactive) | IC50 [3]: > 47.1 µM (inactive)

COc1cc(OC)c2ccc(=O)oc2c1C(CCN1CCOCC1)c1ccc2c(c1)OCO2 (configuration not stated)
EC50 [2]: > 53 µM (inactive) | IC50 [3]: > 47.1 µM (inactive)

CNc1nnc(S)s1
IC50 [6]: 17.6 µM (active)

CCn1c(=O)cc(SCC(=O)N(C)Cc2ccccc2)c2ccccc21
EC50 [9]: > 79.4 µM (inactive) | EC50 [10]: > 79.4 µM (not active) | EC50 [11]: > 79.4 µM (not active)

COc1ccc2sc(-c3ccc(SC)cc3)c(C#CC(C)(C)O)c2c1
AC50 [12]: 2.26 µM (active)

Cn1c(=O)c2c(nc(NCCCO)n2C/C=C/c2ccccc2)n(C)c1=O
IC50 (H9c2): > 79 µM (inactive)

COc1cc(/C=C(\C#N)c2nc3cc(C)ccc3[nH]2)c([N+](=O)[O-])cc1OC
IC50 (H9c2): > 79 µM (inactive)

CSc1nc(Sc2ccccc2Cl)c2ccccc2n1
EC50 [9]: > 79.4 µM (inactive) | EC50 [10]: > 79.4 µM (not active) | EC50 [11]: > 79.4 µM (not active)

Cc1cccc(CN2C(=O)/C(=C\c3ccc(C(=O)NCCCN4CCN(C)CC4)cc3)Oc3ccccc32)c1
EC50 [13]: 10.6 µM (active) | AC50 [12]: 3.6 µM (active) | EC50 [14]: > 120 µM (not active) | EC50 [15]: > 120 µM (not active)

C=CCn1c(-c2cc(OC)cc(OC)c2)n[nH]c1=S
IC50 [6]: 8.23 µM (active)

CSc1nc2ncc3c(n2n1)CC1c2ccccc2CCN1C3=O (configuration not stated)
IC50 (H9c2): 15.1 µM (active)

CCC(CC)c1nnc(NC(=O)COc2ccc3c(c2)OCO3)s1
IC50 [6]: 53.2 µM (active)

O=C(c1ccccc1)c1nn(-c2ccc(Cl)cc2)cc1C(=O)c1cc2ccccc2oc1=O
EC50 [2]: > 53 µM (inactive) | IC50 [3]: > 47.1 µM (inactive)

Cc1cccc2sc(NC(=O)C3c4ccccc4Oc4ccccc43)nc12
AC50 [12]: 2.83 µM (active) | CC50 [16]: 15.1 µM (active)

CCOC(=O)c1sc(-c2ccc(OC)cc2)cc1NC(C)=O
EC50 [9]: > 79.4 µM (inactive) | EC50 [10]: 22 µM (not active) | EC50 [11]: > 79.4 µM (not active)

O=C(COC(=O)CCc1nc(O)c2ccccc2n1)NCc1ccc(F)cc1
IC50 (H9c2): > 79 µM (inactive)

CN1CCN(C(=O)CSc2cc(=O)n(C)c3ccccc23)CC1
EC50 [9]: > 79.4 µM (inactive) | EC50 [10]: > 79.4 µM (not active) | EC50 [11]: > 79.4 µM (not active)

O=S(=O)(NCc1csc(-c2ccccc2)n1)c1ccc(Cl)s1
IC50 [5]: > 80 µM (inactive)

CCCCCCn1c(SCC(=O)OC)nc2c1c(=O)[nH]c(=O)n2C
IC50 [6]: 51.6 µM (active)

Nc1nc(O)nc(O)c1N=Cc1ccccc1
IC50 [5]: 63.8 µM (inactive)

CCN(CC(=O)NC1CCCCC1)S(=O)(=O)c1ccc(Cl)cc1
AC50 [12]: > 195 µM (inactive)

CCN1CCCC1CNC(=O)c1ccc2c(c1)NC(=O)/C(=C\c1ccccc1Cl)S2 (configuration not stated)
IC50 [5]: > 80 µM (inactive)

O=C(CCSCCC(=O)NN=Cc1ccccc1)NN=Cc1ccccc1
IC50 [5]: 55.2 µM (inactive)

CC(C)NC(=O)Nc1ccc2c(c1)CC(=O)N([C@H](C)CO)C[C@H](C)[C@H](CN(C)Cc1ccc(C(=O)Nc3ccccc3N)cc1)O2
AC50 [17]: 4 µM (active)

COc1ccc(S(=O)(=O)Nc2ccc3c(c2)CC(=O)N([C@H](C)CO)C[C@@H](C)[C@H](CN(C)Cc2ccc4c(c2)OCO4)O3)cc1
AC50 [17]: 5.51 µM (active)

CCN1C(=O)C(C)S/C1=N\S(=O)(=O)c1ccc(F)cc1 (configuration not stated)
IC50 [18]: 4.37 µM (not active)

Cc1ccc(NC(=S)N/N=C/c2c(Cl)cccc2Cl)c(C)c1
EC50 (BJ [19]): 2.66 µM (active) | EC50 (BJ [20]): 3.99 µM (inconclusive) | AC50 [12]: 0.368 µM (active) | EC50 (BJ [21]): 3.48 µM (inconclusive) | EC50 [22]: 2.58 µM (active)

Cc1ccc(Cl)cc1-c1ccc(/C=N/c2ccc(N3CCOCC3)cc2)o1
IC50 [23]: 11.2 µM (active) | EC50 [9]: 27.9 µM (inactive) | EC50 [10]: 19.4 µM (not active) | EC50 [11]: > 79.4 µM (not active)
